Laboratory results published in ChEMBL document CHEMBL1152350, “Identification of compounds exhibiting inhibitory activity toward the Pseudomonas tolaasii toxin tolaasin I using in silico docking calculations, NMR binding assays, and in vitro hemolytic activity assays” (Bioorg Med Chem Lett, 2009).
The source made the active and inactive calls. No cut-off for these calls is given here.

Assays:
[1] = test system: Pseudomonas tolaasii; experiment: Suppression of Pseudomonas tolaasii tolaasin 1-induced hemolysis in rat erythrocytes at 10 to 100 uM; type: cell-based
[2] = test system: Pseudomonas tolaasii; experiment: Suppression of Pseudomonas tolaasii tolaasin 1-induced hemolysis in rat erythrocytes at >1 mM; type: cell-based
[3] = test system: Pseudomonas tolaasii; experiment: Binding affinity to Pseudomonas tolaasii tolaasin 1 at 1 mM by NMR spectroscopy
[4] = test system: Pseudomonas tolaasii; experiment: Suppression of Pseudomonas tolaasii tolaasin 1-induced hemolysis in rat erythrocytes; type: cell-based

Row | Activity [3] | Structure (SMILES) | Activity [1] | Activity [2] | Activity [4]
1 | Active | CCCCCCCC/C=C\CCCCCCCC(=O)OC[C@@H](O)[C@@H](O)[C@H](O)[C@@H](O)CO | 40% | inactive | 
2 | inactive | Cc1[nH]c(=N)sc1C |  |  | inactive
